Measured values: the Deep4Chem optical property database
Blank lines part the entries; values can stand above or below the molecule they belong to.

Assay: solvent given as SMILES

Compound: COc1ccc(N(c2ccc(C=C(c3ccccc3)c3ccccc3)cc2)c2ccc(C=C(c3ccccc3)c3ccccc3)cc2)cc1
emission maximum (in Cc1ccccc1): 477 nm

Compound: c1cc2c3ccc[n+]4cccc(c5ccc[n+](c1)c25)c34
emission maximum (in CC#N): 442 nm
emission maximum (in CS(C)=O): 443 nm
emission maximum (in C[N+](=O)[O-]): 441 nm
emission maximum (in O): 441 nm

Compound: CCC1=C(C)C2=C(c3c4ccccc4cc4ccccc34)c3c(C)c(CC)c(C)n3[B-](F)(F)[N+]2=C1C
emission maximum (in CC#N): 537 nm
emission maximum (in CCCCCC): 539 nm
emission maximum (in CCO): 539 nm
emission maximum (in CN(C)C=O): 541 nm
emission maximum (in Cc1ccccc1): 544 nm
emission maximum (in ClCCl): 543 nm

Compound: COC(=O)c1ccc(C#Cc2ccc(N(C)C)cc2)cc1
emission maximum (in C1CCCCC1): 426 nm
emission maximum (in C1CCOC1): 482 nm
emission maximum (in C1COCCO1): 450 nm
emission maximum (in CC1CCCO1): 464.51 nm
emission maximum (in CC#N): 544.01 nm
emission maximum (in CC(C)=O): 426.99 nm
emission maximum (in CC(C)CC(C)(C)C): 377.5 nm
emission maximum (in CC(C)O): 441.5 nm
emission maximum (in CCCCCCCCCCCCCCCC): 370 nm
emission maximum (in CCCCCCCCCCCCCCCCCl): 382.5 nm
emission maximum (in CCOC(C)=O): 470.5 nm
emission maximum (in CCOCC): 458.51 nm
emission maximum (in CN(C)C=O): 524 nm
emission maximum (in CO): 465.01 nm
emission maximum (in CS(C)=O): 548.49 nm
emission maximum (in Cc1ccccc1): 381 nm

Compound: c1ccc(N(c2ccccc2)c2c3ccccc3c(N(c3ccccc3)c3ccccc3)c3ccccc23)cc1
emission maximum (in Cc1ccccc1): 510 nm

Compound: CCn1c2ccccc2c2cc(C#Cc3cc(C#Cc4ccc5c(c4)c4ccccc4n5CC)nc(S(C)(=O)=O)n3)ccc21
emission maximum (in C1CCOC1): 496 nm
emission maximum (in CCOC(C)=O): 491 nm
emission maximum (in CN(C)C=O): 550 nm
emission maximum (in Cc1ccccc1): 447 nm
emission maximum (in ClCCl): 510 nm

Compound: CCN1\C(=C/C=C/C=C/C2=[N+](CC)c3ccc4ccccc4c3C2(C)C)C(C)(C)c2c1ccc1ccccc21
emission maximum (in C1CCOC1): 707 nm
emission maximum (in CC#N): 695 nm
emission maximum (in CC(C)=O): 698 nm
emission maximum (in CCO): 702 nm
emission maximum (in CN(C)C=O): 702 nm
emission maximum (in CO): 698 nm
emission maximum (in CS(C)=O): 705 nm
emission maximum (in ClCCl): 710 nm

Compound: N#CC(C#N)=C(c1ccc(N(c2ccccc2)c2ccccc2)cc1)c1ccc(N(c2ccccc2)c2ccccc2)cc1
emission maximum (in C1CCCCC1): 413.3 nm
emission maximum (in CC(C)=O): 505.58 nm
emission maximum (in CN(C)C=O): 515.24 nm
emission maximum (in Cc1ccccc1): 439.48 nm
emission maximum (in ClC(Cl)Cl): 491.2 nm

More lines, now with the values ahead:

emission maximum (in CCO): 455 nm
Compound: Cn1c2cc(N3CCCCC3)c(F)cc2c(=O)c2cc(F)c(N3CCCCC3)cc21

emission maximum (in C1CCOC1): 396 nm
Compound: COc1ccc(C(=Cc2ccc(C=O)cc2)c2ccc(OC)cc2)cc1

emission maximum (in ClCCl): 476 nm
Compound: F[B-]1(F)Oc2ccc3ccccc3c2-c2c3c(c4c([n+]21)CCc1ccccc1-4)CCc1ccccc1-3

emission maximum (in C1CCCCC1): 438 nm
emission maximum (in C1CCOC1): 438 nm
emission maximum (in C1COCCO1): 437 nm
emission maximum (in CC#N): 398 nm
emission maximum (in CCOC(C)=O): 439 nm
emission maximum (in CN(C)C=O): 385 nm
emission maximum (in CO): 390 nm
emission maximum (in ClC(Cl)Cl): 442 nm
Compound: Cc1cccc(Nc2ccccc2C(=O)O)c1C

emission maximum (in ClCCl): 445 nm
Compound: CCOC(=O)c1c(-c2cc3cc(OC)ccc3oc2=O)nn(-c2cccc(Cl)c2)c1C(=O)OCC

emission maximum (in CCO): 445 nm
Compound: O=c1c2cc(F)c(O)cc2oc2cc(N3CCCCC3)c(F)cc12

emission maximum (in ClCCl): 401 nm
Compound: CC(C)(C)c1cc(-c2ccc3c(-c4cc(C(C)(C)C)cc(C(C)(C)C)c4)cc4c5cc(-c6cc(C(C)(C)C)cc(C(C)(C)C)c6)ccc5c(-c5cc(C(C)(C)C)cc(C(C)(C)C)c5)cc4c3c2)cc(C(C)(C)C)c1

emission maximum (in C1CCOC1): 496 nm
Compound: c1ccc(/C(=C(\c2ccccc2)c2cc(-c3ccc(-c4ccccc4)cc3)ccc2-c2ccc(-c3ccccc3)cc2)c2cc(-c3ccc(-c4ccccc4)cc3)ccc2-c2ccc(-c3ccccc3)cc2)cc1

emission maximum (in C1CCCCC1): 389 nm
Compound: COc1ccc2c3c(c4ccc(OC)cc4c2c1)C1(c2ccccc2-c2ccccc21)c1ccccc1-3

emission maximum (in ClCCl): 560 nm
Compound: F[B-]1(F)N2C=CN=CC2=[N+]2[N+]1=Cc1c(-c3ccccc3)cc(-c3ccccc3)n1[B-]2(F)F
